Assay results from PMC5238392, “Origin of anti-tumor activity of the cysteine-containing GO peptides and further optimization of their cytotoxic properties” (Scientific Reports, 2017).
Where two headings read alike, the source gives them in different places.

Columns and labels:
[1] = tested on: HT-1080 cells; assay: Cell cycle phase distribution, HT-1080; assay type: cell-based, human; conditions: 24 h incubation with 5 μM
Protocol: The onset and the progression of the apoptosis are relatively fast, on the time scale of 1 h. […] Indeed, the cell cycle phase distribution remains unaffected by addition of the peptide. For example, in the untreated (control) HT-1080 sample the distribution between G0/G1, S, and G2/M phases is 52%, 23% and 26%, respectively. After 24 h incubation with 5 μM GO-203 this proportion is essentially unchanged at 50%, 24%, and 27%.
The adherent cells were rinsed with PBS, harvested using trypsin-EDTA solution and suspended in the growth medium. To analyze cell cycle phase distribution, 200 μg/ml of saponin (Fluka, USA), 250 μg/ml RNase A, and 50 μg/ml of propidium iodide (both Sigma-Aldrich, USA) were added to each sample tube, thus obtaining DNA stain buffer. After 1 h incubation at room temperature, the samples were analyzed by flow cytometry. To detect apoptosis by flow cytometry, CellEvent Caspase-3/7 Green Flow Cytometry Assay Kit (Thermo Fisher Scientific, USA) and Annexin-V FITC conjugate (BD Biosciences, USA) in combination with propidium iodide have been employed following the manufacturer’s protocols.
Figure S2. Cell cycle distribution for (A) HT-1080 cells treated with one-time dose of 5 μM GO-203 and (B) ZR-75-1 cells treated with one-time dose of 10 μM GO-203. The peptide concentrations have been chosen such as to induce significant cytotoxic effect without causing massive cell death. The data were taken 24 h after the application of the peptide.
Figure S3. H2DCFDA/DCFDA experiment to assess the level of ROS in (A) HT-1080 cells after 30 min incubation with 5 μM GO-203 and (B) ZR-75-1 cells after 30 min incubation with 10 μM GO-203. A statistically significant difference in the intensity of DCF fluorescence response is marked by an asterisk. […]

[2] = tested on: HT-1080 cells; assay: Rhodamine 123 mitochondrial membrane potential, HT-1080; assay type: cell-based, human
Excerpt: In broad terms, apoptosis is classified into two fundamental modes: mitochondrial pathway and death receptor pathway. In the former mechanism, apoptotic signals lead to a loss of mitochondrial membrane potential, termination of mitochondrial ATP synthesis, overproduction of reactive oxygen species (ROS) and their release into cytosol along with a number of pro-apoptotic proteins that are normally confined to the intermembrane space of the mitochondria. To determine whether this mechanism is relevant for GO-203-induced cell death, we have analyzed the time variation of mitochondrial membrane potential and cellular level of ROS over the time interval of 2 h following the addition of the peptide. Toward this goal, the cells were preloaded with Rhodamine 123 or carboxy-H2DCFDA fluorescent dyes, then washed, suspended in the growth medium, and treated with GO-203. The fluorescence was measured concurrently with the side angle light scatter.
Only at 90–100 min we observe a moderate decrease of the fluorescence signal from the treated cells, which indicates the drop in mitochondrial membrane potential. As discussed above, the onset of apoptosis in HT-1080 occurs considerably earlier than that. […] Therefore we assume that mitochondrial membrane permeabilization (MMP) occurs relatively late in the game and is unlikely to be a key element of the GO-203-induced apoptosis.
Finally, the same experimental scheme as described above for H2DCFDA/DCFDA measurements was also used with Rhodamine 123. […] The same observation has been made for ZR-75-1.
The cells were seeded into 35-mm Nunc culture dishes (Thermo Scientific, USA) at 1.2 × 10^5 cells per dish and allowed to attach for 24 h. […] After that GO-203 was added directly to the suspension and cell fluorescence was measured by flow cytometry at multiple time points during the following 2 hours. […] Cell fluorescence was then immediately measured by flow cytometry. […]

[3] = tested on: human fibrosarcoma cell line HT-1080; assay type: cell-based; conditions: HT-1080
[4] = suspended HT-1080, one-time 5 μM dose

## [R]9CQCRRKN [GO-203, in clinical trials]
[1]; control 23%
  cells in S phase: 24%
[1]; control 26%
  cells in G2/M phase: 27%
[1]; control 52%
  cells in G0/G1 phase: 50%
[2]; HT-1080, 30 min after application, same scheme as H2DCFDA/DCFDA measurements
  Mitochondrial membrane potential (Rhodamine 123): fully maintained
[2]; [4]
  Time for which mitochondrial retention of Rhodamine 123 remains the same as control: at least 70 min
  Time of moderate decrease of Rhodamine 123 fluorescence (drop in mitochondrial membrane potential): 90 to 100 min
[3]; 1 × 5: single dose of 5 μM, 96 h
  Cell viability (MTS): essentially inconsequential
[3]; 1 × 10: single dose of 10 μM, 96 h
  Cell viability (MTS): nearly wipes out
[3]; 4/5: four daily doses of 5 μM with exchanged growth medium, 96 h
  Cell viability (MTS): inefficient
[3]; 4 × 5: four daily doses of 5 μM without exchanging growth medium, OD 492 nm 96 h after first application, duplicate or triplicate
  Cell viability (MTS): essentially complete cell death
